From patent publication EP4703363A1, “SALT FORM AND CRYSTAL FORM OF THIENOPYRIMIDINE COMPOUND, AND PREPARATION METHOD THEREFOR AND USE THEREOF” (Shandong Luye Pharmaceutical Co., Ltd., priority 2023, dated 2024) come the findings set out here.

Data set [1] has as its target T1, human GnRHR (Homo sapiens, UniProt P30968).
T1 sequence (P30968 1-328): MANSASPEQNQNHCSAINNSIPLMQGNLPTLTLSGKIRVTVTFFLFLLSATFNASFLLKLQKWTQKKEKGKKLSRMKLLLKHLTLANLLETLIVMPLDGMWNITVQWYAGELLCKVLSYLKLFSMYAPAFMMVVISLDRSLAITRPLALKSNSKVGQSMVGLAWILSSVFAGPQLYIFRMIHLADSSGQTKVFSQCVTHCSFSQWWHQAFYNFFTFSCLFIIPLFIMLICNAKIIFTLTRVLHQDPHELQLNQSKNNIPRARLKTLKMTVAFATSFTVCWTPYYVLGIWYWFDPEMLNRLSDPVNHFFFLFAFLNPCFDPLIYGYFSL
Kind of data set: In vitro binding screening ([125I]-[D-Trp6]-LH-RH displacement, Chem-1 cell membrane). Set-up: host or cells: Chem-1 cells (membrane preparation). The method, then: [D-Trp6]-LH-RH, PerkinElmer; [D-Trp6]-LH-RH, Abcam.
Equipment: MicroBeta2 LumiJET system, PerkinElmer.
1 µM [D-Trp6]-LH-RH was used in the non-specific binding assay. The cell membrane was collected by filtration under vacuum and washed before liquid scintillation. The binding IC50 and IC90 of the compound were calculated using Prism. Table 13. The in vitro binding activity of the compound of the present disclosure to human GnRHR

Data set [2] has as its target T1, human GnRHR. Kind of data set: In vitro antagonistic activity screening (FLIPR fluorescence, Leuprolide acetate stimulation). In kind it is cell-based. As to conditions: HEK293 cells stably expressing human GnRHR. The method, then:
Cell: HEK293 cells stably expressing human GnRHR (WuXi AppTec (Shanghai) Co., Ltd.) Equipment: 384-well plate, Greiner; Vi-cell XR Cell Viability Analyzer, Beckman Coulter; incubator, Thermo.
Method: HEK293 cells stably expressing human GnRHR were seeded into a 384-well plate at a density of 20,000 cells/well. Fluo-4 DirectTM No-wash Loading Buffer (Invitrogen) was added to each well the next day, and then the plate was put back into an incubator, incubated at 37 °C for 50 min, and then incubated at room temperature for 10 min. […] Fluorescence was measured using a FLIPR Tetra high-throughput real-time fluorescence assay and analysis system. Then 10 µL of Leuprolide acetate was added, and fluorescence was measured. The IC50 and IC90 of the compound were calculated using Prism. Table 12. The in vitro antagonistic activity of the compound of formula I against human GnRHR

Data set [3] in a line: In vivo pharmacokinetics in SD rats. To be noted: for F: absolute bioavailability; for AUC(0-t) / C0 / MRT last / half-life / Cmax / Tmax: male, rat, plasma. The method, then:
(§1) Rats: SD rats, male, 200-250 g
(§2) Instruments: water purification instrument, Millipore; electronic balance, METTLER TOLEDO; highspeed benchtop centrifuge, Thermo; water bath thermostatic oscillator, Shanghai Yiheng Technical Co., Ltd.; vortex oscillator, Thermo; LC-MS/MS, AB SCIEX.
(§3) Method: Solutions of all compounds were prepared using DMSO and 20% solutol. In the pharmacokinetic experiment, the administration dose for the intravenous group (i.v) was 1 mg/kg, and the administration dose for the intragastric group (i.g) was 12 mg/kg; each group contained 3 rats. Blood was collected from the orbit of the rats before administration (0 h) and at set time points after administration. In the tissue distribution experimental group, the rats were intragastrically dosed at 12 mg/kg. […] The […] was placed in a heparinized EP tube and centrifuged at 13,500 rpm for 10 min to isolate the plasma. The pituitary was homogenized with water in a certain ratio. The plasma and pituitary homogenates were pre-treated and then analyzed by LC-MS/MS to determine the concentrations of the test substances in the plasma and the pituitary. The plasma drug concentration data were processed in a non-compartmental model using WinNonlin™ Version 6.3 (Pharsight, Mountain View, CA) pharmacokinetic software. […] Table 16-1. Pharmacokinetic parameters in SD rats after intravenous administration

Data set [4] is described as follows: Pituitary tissue distribution in SD rats. In kind it is in vivo. To be noted: intragastric 12 mg/kg; for Kp at 1 h / Kp at 4 h / Kp at 12 h: male, rat, pituitary/plasma, oral. The method, then: as §1, §2, §3
The target of data set [5] is T2, human hERG potassium channel (Homo sapiens, UniProt Q12809).
T2 construct: host or cells: CHO
Kind of data set: hERG test (QPatch automated patch clamp, CHO cells). In kind it is cell-based. To be noted: CHO cells stably expressing human hERG potassium channel. The method, then:
Cell: CHO cells stably expressing a human hERG potassium channel (WuXi AppTec (Shanghai) Co., Ltd.)
Reagents: physiological solution (PH = 7.4): 140 mM NaCl, 4 mM KCl, 2 mM CaCl2, 1 mM MgCl2, 5 mM glucose, 10 mM HEPES, osmolarity: about 298 mOsm; external solution (PH = 7.4): 80 mM NaCl, 4 mM KCl, 2 mM CaCl2, 1 mM MgCl2, 5 mM glucose, 60 mM NMDG, 10 mM HEPES, osmolarity: about 289 mOsm; and internal solution (PH = 7.4): 10 mM NaCl, 10 mM KCl, 110 mM KF, 10 mM HEPES, EGTA: […], osmolarity: about 280 mOsm.
Equipment: QPatch high-throughput automated patch clamp system, Sophion.
Method: CHO cells stably expressing a human hERG potassium channel were digested with TrypLE and resuspended in the physiological solution for later use. The single-cell high-impedance sealing and whole-cell mode formation processes were automatically completed by Qpatch. The cells were clamped at a voltage of -80 mV, then a voltage of -50 mV was applied for 80 ms to subtract (current) leakage, and a voltage of +20 mV was applied for 4800 ms to open the hERG channel. The voltage was then reduced to -50 mV and maintained for 5000 ms. This process was used for data collection and analysis. Finally, the voltage was returned to the clamping voltage (-80 mV, 1000 ms). This process was repeated every 20,000 ms. […]
For orientation: Block of hERG is tested as a sign of cardiac risk.

The nature of data set [6]: Caco-2 monolayer two-way permeability and efflux. In kind it is in vitro ADME. To be noted: human. The method, then:
Instruments: water purification instrument, ELGA LabWate; biosafety cabinet, NUAIRE; thermostatic CO2 incubator, Thermo; microplate reader, PerkinElmer; LC-MS/MS, AB SCIEX.
Method: A Caco-2 monolayer cell model was used to determine the two-way permeability of the test substance and evaluate whether the test substance was transported via efflux by a transporter. In the experiment, Caco-2 cells were seeded into a 96-well cell culture plate and cultured for 28 consecutive days before a transport assay. The test substance was administered on two sides. After 120 min of incubation, samples of apical end A, basal end B, and the cell lysate were collected, and the content of the test substance in the samples was quantitatively determined using a liquid chromatography-tandem mass spectrometry (LC/MS/MS) method. The apparent permeability coefficients (Papp) in the direction from the apical end to the basal end (A-B) and in the direction from the basal end to the apical end (B-A) and the efflux ratio were calculated based on the concentration of the test substance. Table 15. The permeability of the compound of formula I in Caco-2 cells
In general terms: Caco-2 cells form a polarised layer with tight junctions and transporters.

The mark [7] stands for this setting: intragastric administration group.

What is called IC50 is the concentration needed to halve the response being measured. In general, IC90 refers to the point of the concentration-response curve where the effect stands at 90%. Usually AUC(0-t) stands for exposure summed from dosing to a finite time, without extrapolation to infinity. A higher AUC(0-t) goes with high exposure. Broadly, the MRT last is the average time that molecules of a dose stay in the body. In general, half-life refers to how long it takes for the measured level to halve. Low readings indicate rapid decline, high ones slow decline. As usually defined, the Cmax is the maximum level reached in the sampled fluid or tissue. The Tmax is the time at which the peak concentration occurs. One may read the Kp as tissue or fluid exposure divided by exposure in the circulation. A word on the efflux ratio: it is the permeability from basolateral to apical divided by that in the opposite direction, in the common usage. The term Papp A→B denotes how fast a substance crosses the layer from the apical side. A lower Papp A→B goes with slow passage. As a reminder, the Papp B→A is how fast a substance crosses the layer from the basolateral side.

T2 sequence (Q12809 whole entry): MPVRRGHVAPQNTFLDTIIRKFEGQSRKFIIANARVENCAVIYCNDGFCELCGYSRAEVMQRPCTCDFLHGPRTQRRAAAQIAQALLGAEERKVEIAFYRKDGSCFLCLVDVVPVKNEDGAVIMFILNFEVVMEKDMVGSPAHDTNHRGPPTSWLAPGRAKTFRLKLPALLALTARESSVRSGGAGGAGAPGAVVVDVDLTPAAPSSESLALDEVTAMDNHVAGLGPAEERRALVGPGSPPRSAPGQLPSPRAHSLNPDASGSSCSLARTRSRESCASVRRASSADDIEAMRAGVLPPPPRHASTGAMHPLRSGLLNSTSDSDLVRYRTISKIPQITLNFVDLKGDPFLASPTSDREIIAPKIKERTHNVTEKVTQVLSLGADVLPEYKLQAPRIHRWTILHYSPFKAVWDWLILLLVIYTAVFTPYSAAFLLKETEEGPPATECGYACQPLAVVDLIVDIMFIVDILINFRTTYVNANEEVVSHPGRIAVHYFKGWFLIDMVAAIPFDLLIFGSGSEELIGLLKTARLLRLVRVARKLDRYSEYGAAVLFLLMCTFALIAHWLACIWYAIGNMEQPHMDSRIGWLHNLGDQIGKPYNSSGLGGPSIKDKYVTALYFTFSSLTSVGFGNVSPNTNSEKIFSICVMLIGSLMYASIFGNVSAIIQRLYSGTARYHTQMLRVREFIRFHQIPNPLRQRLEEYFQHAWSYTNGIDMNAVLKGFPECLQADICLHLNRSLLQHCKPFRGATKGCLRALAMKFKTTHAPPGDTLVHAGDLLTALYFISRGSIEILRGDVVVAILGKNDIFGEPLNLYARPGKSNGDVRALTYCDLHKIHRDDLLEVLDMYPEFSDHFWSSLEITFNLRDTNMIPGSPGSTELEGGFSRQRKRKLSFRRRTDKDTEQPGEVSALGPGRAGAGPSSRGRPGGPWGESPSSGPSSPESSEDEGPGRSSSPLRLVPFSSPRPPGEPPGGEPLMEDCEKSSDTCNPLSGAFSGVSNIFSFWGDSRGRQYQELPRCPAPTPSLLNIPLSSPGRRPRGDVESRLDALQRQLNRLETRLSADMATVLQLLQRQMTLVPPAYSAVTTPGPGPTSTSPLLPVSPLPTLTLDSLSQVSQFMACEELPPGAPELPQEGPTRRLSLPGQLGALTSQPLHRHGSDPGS

At human GnRHR [1], `CCNC(=O)Nc1ccc(-c2sc3c(c2CN(C)C)c(=O)n(-c2ccc(OC)nn2)c(=O)n3Cc2c(F)cccc2F)cn1` [Formula I] gave an IC50 of 0.64 nM and an IC90 of 2.67 nM. Further, the IC50 on human GnRHR [2] (read-out: Functional IC50) turned out to be 1.01 nM. Besides, the concentration for an effect of 90% (IC90) at human GnRHR [2] (read-out: Functional IC90) is 7.55 nM. Besides, the F in data set [3] (i.g 12 mg/kg) is 19.9%. Moreover, in data set [3] (setting [7]), the “AUClast relative to Relugolix” value stood at 2.45 times and the “Cmax relative to Relugolix” value was 3.63 times. Moreover, in data set [3] (intravenous, i.v 1 mg/kg), the AUC(0-t) was found to be 150 ± 12 ng·h/mL, the C0 turned out to be 68.8 ± 21.7 ng/mL, the MRT last is 5.41 ± 0.47 h and the half-life was 6.39 ± 1.08 h. For the same compound, in data set [3] (oral, i.g 12 mg/kg), the area under the curve AUC(0-t) worked out at 357 ± 85 ng·h/mL, the Cmax worked out at 78.5 ± 36.4 ng/mL, the MRT last came out at 6.13 ± 1.1 h and the Tmax was determined as 0.38 ± 0.14 h. The compound further gave a half-life in data set [3] (oral, i.g 12 mg/kg) of 4.31 ± 1.81 h. In addition, in data set [4] (1 h), the Pituitary stood at 2250±474, the Plasma is 39.5±14.0, the “concentration in the pituitary relative to Relugolix” value was found to be 2.38 times and the Kp at 1 h stood at 56.9. For the same compound, in data set [4] (4 h), the Pituitary amounted to 1841±636, the Plasma worked out at 22.8±2.5, the “concentration in the pituitary relative to Relugolix” value is 1.48 times and the Kp at 4 h is 80.8. Also, in data set [4] (12 h), the Pituitary is recorded as 1254±494, the Plasma turned out to be 9.70±3.10, the “concentration in the pituitary relative to Relugolix” value came to 2.46 times and the Kp at 12 h is 129. For the same compound, the midpoint of inhibition in data set [5], the IC50, lay at 25800 nM. Further, in data set [6] (Caco-2), the efflux ratio at 120 min was 294. This compound came in with a Papp A→B at 120 min in data set [6] (Caco-2, 120 min incubation, A to B) of 0.0142 ×10⁻⁶ cm/s. The compound further showed a basolateral-to-apical permeability (Papp B→A) at 120 min in data set [6] (Caco-2, 120 min incubation, B to A) of 4.19 ×10⁻⁶ cm/s.

In the case of `CONC(=O)Nc1ccc(-c2sc3c(c2CN(C)C)c(=O)n(-c2ccc(OC)nn2)c(=O)n3Cc2c(F)cccc2F)cc1` [Relugolix, reference compound], in data set [3] (i.g 12 mg/kg), the T1/2 worked out at 3.88 ± 0.57 h and the F worked out at 5.74%. In data set [3] (intravenous, i.v 1 mg/kg), the AUC(0-t) came out at 212 ± 61 ng·h/mL, the C0 was 339 ± 36 ng/mL and the mean residence time MRT last came to 2.01 ± 0.92 h. Moreover, in data set [3] (oral, i.g 12 mg/kg), the AUC(0-t) came out at 146 ± 37 ng·h/mL, the peak level (Cmax) was 21.6 ± 8.3 ng/mL, the MRT last was found to be 5.68 ± 0.17 h and the Tmax is 0.33 ± 0.14 h. Besides, in data set [4] (1 h), the Kp at 1 h was 42.4. For the same compound, in data set [4] (4 h), the Kp at 4 h stood at 76.3. For the same compound, in data set [4] (12 h), the Kp at 12 h is 161.
